system: HCV replicon; experiment: Replicon based assay of HCV replication inhibition (NPT ELISA); assay type: cell-based, Hepatitis C virus; settings: Hepatitis C virus, replicon based assay of HCV replication inhibition; Table II; read-out: Activity
Method in brief: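 NPT (neomycin phosphotransferase) content, proportional to replicon replication, quantified by capture ELISA on day four. Before that, replicon-bearing Huh-7 cells in G418-free screening medium were exposed three days at 37° C to compound, typically six doses from 10 to 0.03 micromolar, with equal DMSO across wells.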

Row | Structure (SMILES) | EC50 [µM]
1 | CCCCCOc1ccc(Nc2nc(CN3CCN(C4CCCCCC4)CC3)cs2)cc1F [compound 282, 4-((4-cycloheptylpiperazin-1-yl)methyl)-N-(3-fluoro-4-(pentyloxy)phenyl)thiazol-2-amine] | < 1
2 | CCCCCOc1ccc(Nc2nc(CN3CCN(CCN(C)C)CC3)cs2)cc1F [compound 283, 4-((4-(2-(dimeethylamino)ethyl)piper-azin-1-yl)methyl)-N-(3-fluoro-4-(pentyloxy)phenyl)thiazol-2-amine] | 1 to 10
3 | CCCCCOc1ccc(Nc2nc(CN3CCCC(C(=O)N(CC)CC)C3)cs2)cc1F (stereo not shown) [compound 284, N,N-diethyl-1-((2-(3-fluoro-4-(pentyloxy)phenylamino)thia-zol-4-yl)methyl)piperidine-3-carboxamide] | 1 to 10
4 | CCCCCOc1ccc(Nc2nc(CN3CCOCC3)cs2)cc1F [compound 285, N-(3-fluoro-4-(pentyloxy)phenyl)-4-(morpholinomethyl)thiazol-2-amine] | 1 to 10
5 | CCCCCOc1ccc(Nc2nc(CN3CCCCC3CO)cs2)cc1F (stereo not shown) [compound 286, (1-((2-(3-fluoro-4-(pentyloxy)phenylamino)thia-zol-4-yl)methyl)piperidin-2-yl)methanol] | 1 to 10
6 | CCCCCOc1ccc(Nc2nc(CN3CCC(N(C)C)C3)cs2)cc1F (stereo not shown) [compound 287, 4-((3-(dimethylamino)pyrrolidin-1-yl)methyl)-N-(3-fluoro-4-(pentyloxy)pheenyl)thiazol-2-amine] | < 1
7 | CCCCCOc1ccc(Nc2nc(CN3CCC(O)C3)cs2)cc1F (stereo not shown) [compound 288, 1-((2-(3-fluoro-4-(pentyloxy)phenylamino)thia-zzol-4-yl)methyl)pyrrolidin-3-ol] | < 1
8 | CCCCCOc1ccc(Nc2nc(CN3CCC(C(=O)OCC)CC3)cs2)cc1F [compound 289, ethyl 1-((2-(3-fluoro-4-(pentyloxy)phenylamino)thia-zol-4-yl)methyl)piperidine-4-carboxylate] | 1 to 10
9 | CCCCCOc1ccc(Nc2nc(CN3C[C@H](O)CC3C(=O)OC)cs2)cc1F (stereo partly drawn) [compound 290, (4R)-methyl 1-((2-(3-fluoro-4-(pentyloxy)phenylamino)thia-zol-4-yl)methyl)-4-hydroxypyrrolidine-2-carboxylate] | < 1
10 | CCCCCOc1ccc(Nc2nc(CN3CCC(O)CC3)cs2)cc1F [compound 291, 1-((2-(3-fluoro-4-(pentyloxy)phenylamino)thia-zol-4-yl)methyl)piperidin-4-ol] | 1 to 10
11 | CCCCCOc1ccc(Nc2nc(CN3CCC(CO)CC3)cs2)cc1F [compound 292, (1-((2-(3-fluoro-4-(pentyloxy)phenylamino)thia-zol-4-yl)methyl)piperidin-4-yl)methanol] | 1 to 10
12 | CCCCCOc1ccc(Nc2nc(CN3CCCC(C(=O)O)C3)cs2)cc1F (stereo not shown) [compound 293, 1-((2-(3-fluoro-4-(pentyloxy)phenylamino)thia-zol-4-yl)methyl)piperidine-3-carboxylic acid] | 1 to 10
13 | CCCCCOc1ccc(Nc2nc(CN3CCC[C@@H]3C(=O)O)cs2)cc1F [compound 294, (R)-1-((2-(3-fluoro-4-(pentyloxy)phenylamino)thia-zol-4-yl)methyl)pyrrolidine-2-carboxylic acid] | 1 to 10
14 | CCCCCOc1ccc(Nc2nc(CN3CCC(C)CC3)cs2)cc1F [compound 295, N-(3-fluoro-4-(pentyloxy)pheenyl)-4-((4-methylpiperidin-1-yl)methyl)thiazol-2-amine] | 1 to 10
15 | CCCCCOc1ccc(Nc2nc(CN3CCCC(C)C3)cs2)cc1F (stereo not shown) [compound 296, N-(3-fluoro-4-(pentyloxy)phenyl)-4-((3-methylpiperidin-1-yl)methyl)thiazol-2-amine] | 1 to 10
16 | CCCCCOc1ccc(Nc2nc(CN3C(C)CCCC3C)cs2)cc1F (stereo not shown) [compound 297, 4-((2,6-dimethylpiperidin-1-yl)methyl)-N-(3-fluoro-4-(pentyloxy)phenyl)thiazol-2-amine] | 1 to 10

Row | Structure (SMILES) | EC50 [µM]
17 | CCCCCOc1ccc(Nc2nc(-c3csc(-c4cccnc4)n3)cs2)cc1C(F)(F)F [compound 298, N-(4-(pentyloxy)-3-(trifluoromethyl)phenyl)-4-(2-(pyridin-3-yl)thiazol-4-yl)thiazol-2-amine] | < 1
18 | COc1ccc(C2CCCCC2)cc1Nc1nc(-c2cccnc2)cs1 [compound 299, N-(5-cyclohexyl-2-methoxyphenyl)-4-(pyridin-3-yl)thiazol-2-amine] | 1 to 10
19 | COc1ccc(Oc2ccccc2)cc1Nc1nc(-c2cccnc2)cs1 [compound 300, N-(2-methoxy-5-phenoxyphenyl)-4-(pyridin-3-yl)thiazol-2-amine] | 1 to 10
20 | CCCCCOc1ccc(Nc2nc(-c3ccc(C(=O)NC4CC4)nc3)cs2)cc1C(F)(F)F [compound 301, N-cyclopropyl-5-(2-(4-(pentyloxy)-3-(trifluoromethyl)phenylamino)thiazolo-4-yl)picolinamide] | < 1
21 | CCCCCCCCOc1ccc(Nc2nc(-c3ccc(C(=O)O)cc3)cs2)cc1 [compound 303, 4-(2-(4-(octyloxy)phenylamino)thia-zol-4-yl)benzoic acid] | 1 to 10
22 | CCCCCOc1ccc(Nc2nc(CN3CCC(C(C)(C)N)C3)cs2)cc1C(F)(F)F (stereo not shown) [compound 304, 4-((3-(2-aminopropan-2-yl)pyrrolidin-1-yl)methyl)-N-(4-(pentyloxy)-3-(trifluoromethyl)phenyl)thia-zol-2-amine] | 1 to 10
23 | CCCCCOc1ccc(Nc2nc(CN3CCC(C(C)(C)N)C3)cs2)cc1F (stereo not shown) [compound 305, 4-((3-(2-aminopropan-2-yl)pyrrolidin-1-yl)methyl)-N-(3-fluoro-4-(pentyloxy)phenyl)thiazol-2-amine] | 1 to 10
24 | CCCCCCCCOc1ccc(Nc2nc(-c3csc(N)n3)cs2)cc1 [compound 306, 4-(2-aminothiazol-4-yl)-N-(4-(octyloxy)phenyl)thiazol-2-amine] | < 1
25 | CCCCCCCCOc1ccc(Nc2nc(-c3cn4cccnc4n3)cs2)cc1 [compound 307, 4-(imidazo[1,2-a]pyrimidin-2-yl)-N-(4-(octyloxy)phenyl)thiazol-2-amine] | < 1
26 | CCCCCCCCOc1ccc(Nc2nc(CN3CCN(C(=O)OC(C)(C)C)CC3)cs2)cc1 [compound 308, tert-butyl 4-((2-(4-(octyloxy)phenylamino)thia-zol-4-yl)methyl)piperazine-1-carboxylate] | 1 to 10
27 | CCCCCCCCOc1ccc(Nc2nc(CN3CCC(N(C)C(=O)OC(C)(C)C)C3)cs2)cc1 (stereo not shown) [compound 309, tert-butyl methyl(1-((2-(4-(octyloxy)phenylamino)thia-zol-4-yl)methyl)pyrrolidin-3-yl)carbamate] | 1 to 10
28 | CCCCCCCCOc1ccc(Nc2nc(-c3ccc(OC)cc3)cs2)cc1 [compound 310, 4-(4-methoxyphenyl)-N-(4-(octyloxy)phenyl)thiazol-2-amine] | < 1
29 | CCCCCCCCOc1ccc(Nc2nc(-c3ccc(OCC(=O)O)cc3)c(C)s2)cc1 [compound 311] | < 1
30 | CCCCCCCCOc1ccc(Nc2nc(-c3ccc(F)c(F)c3)cs2)cc1 [compound 312, 4-(3,4-difluorophenyl)-N-(4-(octyloxy)phenyl)thiazol-2-amine] | < 1
31 | CCCCCCCCOc1ccc(Nc2nc(CN3CCN(Cc4ccccn4)CC3)cs2)cc1 [compound 313] | 1 to 10
